Experimental data as given in US8916499B2, “Herbicidal compositions comprising 4-amino-3-chloro-5-fluoro-6-(4-chloro-2-fluoro-3-methoxyphenyl) pyridine-2-carboxylic acid or a derivative thereof and a protoporphyrinogen oxidase inhibitor” (Dow AgroSciences LLC, priority 2012, dated 2014).

Legend:
LEFCH [1] = assay: Postemergence foliar-applied weed control, direct seeded rice, greenhouse (Example I); assay type: in vivo, Leptochloa chinensis (L.) Nees; conditions: g ae/ha Compound A n-Butyl Ester+g ai/ha carfentrazone-ethyl: r11 16+0, r12 0+28, r13 16+28
IPOHE [2] = assay: as above; assay type: in vivo, Ipomoea hederacea Jacq.
ECHOR = assay: In-water applied weed control, transplanted paddy rice, greenhouse (Example II); assay type: in vivo, Echinochloa oryzoides (Ard.) Fritsch
LEFCH [3] = assay: as above; assay type: in vivo, Leptochloa chinensis (L.) Nees; conditions: 35 g ae/ha alone
IPOHE [4] = assay: Pre-emergence soil-applied weed control, greenhouse (Example IV); assay type: in vivo, Ipomoea hederacea (L.) Jacq.
From the text: Seeds or nutlets of the desired test plant species were planted in a soil matrix prepared by mixing a loam soil (32 percent silt, 23 percent clay, and 45 percent sand, with a pH of about 6.5 and an organic matter content of about 1.9 percent) and calcareous grit in an 80 to 20 ratio. The soil matrix was contained in plastic pots with a volume of 1 quart and a surface area of 83.6 square centimeters (cm^2).
Treatments consisted of the benzyl ester of 4-amino-3-chloro-5-fluoro-6-(4-chloro-2-fluoro-3-methoxy-phenyl)pyridine-2-carboxylic acid (compound A) formulated as an SC (suspension concentrate) and various herbicidal components alone and in combination. Forms of compound A were applied on an acid equivalent basis.
Other herbicidal components were applied on an acid equivalent or active ingredient basis and included the protoporphyrinogen oxidase (PPO)-inhibiting herbicides, flumioxazin formulated as Payload® and oxadiazon formulated as Ronstar® 50W.
Treatment requirements were calculated based upon the rates being tested, the concentration of active ingredient or acid equivalent in the formulation, and a 12 mL application volume at a rate of 187 L/ha.
For treatments comprised of formulated compounds, measured amounts of compounds were placed individually in 25 mL glass vials and diluted in a volume of 1.25% (v/v) Agri-Dex® crop oil concentrate (COC) to obtain 12× stock solutions. […] Application solutions were prepared by adding an appropriate amount of each stock solution (e.g., 1 mL) and diluted to the appropriate final concentrations with the addition of 10 mL of an aqueous mixture of 1.25% (v/v) COC so that the final spray solutions contained 1.25% (v/v) COC.
All stock solutions and applications solutions were visually inspected for compound compatibility prior to application. Spray solutions were applied to the soil with an overhead Mandel track sprayer equipped with a 8002E nozzles calibrated to deliver 187 L/ha over an application area of 0.503 m^2 at a spray height of 18 inches (46 cm) above average pot height. Control pots were sprayed in the same manner with the solvent blank.
The treated and control pots were placed in a greenhouse and top watered as needed. When required to ensure good germination and healthy plants, a fungicide treatment and/or other chemical or physical treatment was applied. The pots were maintained in a greenhouse with an approximate 14 hr photoperiod which was maintained at about 29° C. during the day and 26° C. during the night. Nutrients (Peters® Excel 15-5-15 5-Ca 2-Mg) were applied in the irrigation solution as needed and water was added on a regular basis. Supplemental lighting was provided with overhead metal halide 1000-Watt lamps as necessary. After approximately 4 weeks, the condition of the test plants as compared with that of the untreated plants was determined visually and scored on a scale of 0 to 100 percent where 0 corresponds to no injury or growth inhibition and 100 corresponds to complete kill.
Colby's equation was used to determine the herbicidal effects expected from the mixtures (Colby, S. R. 1967. Calculation of the synergistic and antagonistic response of herbicide combinations. Weeds 15:20-22.).
The following equation was used to calculate the expected activity of mixtures containing two active ingredients, A and B: Expected=A+B−(A×B/100)

DIGSA = assay: Postemergence foliar-applied weed control, direct seeded rice, greenhouse (Example I); assay type: in vivo, Digitaria sanguinalis (L.) Scop.
ECHCG [5] = assay: as above; assay type: in vivo, Echinochloa crusgalli (L.) Beauv.
ECHCO = assay: as above; assay type: in vivo, Echinochloa colona (L.) Link; conditions: g ae/ha Compound A Acid+g ai/ha oxyfluorfen (SC): r24 4.38+0, r25 8.75+0, r26 0+90, r27 4.38+90, r28 8.75+90
CYPRO = assay: In-water applied weed control, transplanted paddy rice, greenhouse (Example II); assay type: in vivo, Cyperus rotundus L.
SCPJU = assay: as above; assay type: in vivo, Schoenoplectus juncoides (Roxb.) Palla
ECHCG [6] = assay: as above; assay type: in vivo, Echinochloa crus-galli (L.) P. Beauv.; conditions: 56.25 g ai/ha alone
FIMMI = assay: as above; assay type: in vivo, Fimbristylis miliacea (L.) Vahl
[7] = g ae/ha Compound A n-Butyl Ester+g ai/ha oxadiazon: r11 17.5+0, r12 0+250, r13 17.5+250

With CCCCOC(=O)c1nc(-c2ccc(Cl)c(OC)c2F)c(F)c(N)c1Cl [Compound A n-Butyl Ester] the “Visual Weed Control (%) - 19 DAA LEFCH Obs” value (LEFCH [1]) was 10%, the “Visual Weed Control (%) - 21 DAA IPOHE Obs” value (IPOHE [2]; [7]) was 40% and the “Visual Weed Control (%) - 21 DAA ECHOR Obs” value (ECHOR; 35 g ae/ha alone) was 25%. The “Visual Weed Control (%) - 21 DAA ECHOR Obs” value (ECHOR; 70 g ae/ha alone) was 38% and the “Visual Weed Control (%) - 21 DAA LEFCH Obs” value (LEFCH [3]) was 8%.
C#CCOc1cc(-n2nc(C(C)(C)C)oc2=O)c(Cl)cc1Cl [Oxadiargyl, 3-[2,4-dichloro-5-(2-propynyloxy)phenyl]-5-(1,1-dimethylethyl)-1,3,4-oxadiazol-2(3H)-one] was tested, and the “Visual Weed Control (%) - 22 DAA IPOHE Obs” value (IPOHE [2]; g ae/ha Compound A Acid+g ai/ha oxadiargyl: r10 4.38+0, r11 8.75+0, r12 17.5+0, r13 0+50, r14 4.38+50, r15 8.75+50, r16 17.5+50) was 25% and the “Visual Weed Control (%) - 22 DAA IPOHE Obs” value (IPOHE [2]; g ae/ha Compound A Benzyl Ester+g ai/ha oxadiargyl: r11 4.38+0, r12 8.75+0, r13 0+50, r14 4.38+50, r15 8.75+50) was 25%.
For CC(C)Oc1cc(-n2nc(C(C)(C)C)oc2=O)c(Cl)cc1Cl [Oxadiazon, 3-[2,4-dichloro-5-(1-methylethoxy)phenyl]-5-(1,1-dimethylethyl)-1,3,4-oxadiazol-2(3H)-one], the “Visual Weed Control (%) - 21 DAA IPOHE Obs” value (IPOHE [2]; g ae/ha Compound A Benzyl Ester+g ai/ha oxadiazon: r33 17.5+0, r34 0+250, r35 17.5+250) was 5%, the “Visual Weed Control (%) - 21 DAA IPOHE Obs” value (IPOHE [2]; [7]) was 5% and the “Visual Weed Control (%) - 20 DAA IPOHE Obs” value (IPOHE [2]; second section, g ae/ha Compound A Acid+g ai/ha oxadiazon: r23 17.5+0, r24 35+0, r25 0+250, r26 17.5+250, r27 35+250) was 5%. The “Visual Weed Control (%) - 21 DAA ECHOR Obs” value (ECHOR; 62.5 g ai/ha alone) was 15%, the “Visual Weed Control (%) - 21 DAA ECHOR Obs” value (ECHOR; 250 g ai/ha alone) was 18% and the “Visual Weed Control (%) - 21 DAA ECHOR Obs” value (ECHOR; second block, g ae/ha Compound A Acid+g ai/ha oxadiazon: r22 35+0, r23 70+0, r24 0+250, r25 35+250, r26 70+250) was 18%. For the same compound, the “Visual Weed Control (%) - 32 DAA IPOHE Obs” value (IPOHE [4]; 560 g ai/ha alone) was 50% and the “Visual Weed Control (%) - 32 DAA IPOHE Obs” value (IPOHE [4]; 1120 g ai/ha alone) was 100%.
With CCOc1cc(Oc2ccc(C(F)(F)F)cc2Cl)ccc1[N+](=O)[O-] [Oxyfluorfen, 2-chloro-1-(3-ethoxy-4-nitrophenoxy)-4-(trifluoromethyl)benzene, reference compound] the “Visual Weed Control (%) - 23 DAA DIGSA Obs” value (DIGSA; g ae/ha Compound A Benzyl Ester+g ai/ha oxyfluorfen (SC): r14 4.38+0, r15 8.75+0, r16 17.5+0, r17 0+180, r18 4.38+180, r19 8.75+180, r20 17.5+180) was 60%, the “Visual Weed Control (%) - 21 DAA DIGSA Obs” value (DIGSA; g ae/ha Compound A Benzyl Ester+g ai/ha oxyfluorfen (technical): r15 4.38+0, r16 8.75+0, r17 17.5+0, r18 0+180, r19 4.38+180, r20 8.75+180, r21 17.5+180) was 50% and the “Visual Weed Control (%) - 23 DAA ECHCG Obs” value (ECHCG [5]; g ae/ha Compound A Acid+g ai/ha oxyfluorfen (SC): r13 4.38+0, r14 8.75+0, r15 17.5+0, r16 0+180, r17 4.38+180, r18 8.75+180, r19 17.5+180) was 30%. For the same compound, the “Visual Weed Control (%) - 23 DAA ECHCO Obs” value (ECHCO) was 50%, the “Visual Weed Control (%) - 23 DAA IPOHE Obs” value (IPOHE [2]; g ae/ha Compound A Benzyl Ester+g ai/ha oxyfluorfen (SC): r36 4.38+0, r37 8.75+0, r38 17.5+0, r39 0+90, r40 0+180, r41 4.38+90, r42 8.75+90, r43 17.5+90, r44 4.38+180, r45 8.75+180, r46 17.5+180) was 85% and the “Visual Weed Control (%) - 21 DAA CYPRO Obs” value (CYPRO; g ae/ha Compound A Acid+g ai/ha oxyfluorfen (SC): r28 16+0, r29 32+0, r30 64+0, r31 0+135, r32 0+270, r33 16+135, r34 32+135, r35 64+135, r36 16+270, r37 32+270, r38 64+270) was 0%. The “Visual Weed Control (%) - 22 DAA CYPRO Obs” value (CYPRO; g ae/ha Compound A Acid+g ai/ha oxyfluorfen (technical): r11 10.6+0, r12 21.2+0, r13 42.4+0, r14 0+180, r15 10.6+180, r16 21.2+180, r17 42.4+180) was 50%, the “Visual Weed Control (%) - 21 DAA CYPRO Obs” value (CYPRO; g ae/ha Compound A Benzyl Ester+g ai/ha oxyfluorfen (SC): r11 32+0, r12 0+135, r13 0+270, r14 32+135, r15 32+270) was 0% and the “Visual Weed Control (%) - 22 DAA SCPJU Obs” value (SCPJU; g ae/ha Compound A Acid+g ai/ha oxyfluorfen (technical): r19 8.75+0, r20 17.5+0, r21 35+0, r22 0+180, r23 0+360, r24 8.75+180, r25 17.5+180, r26 35+180, r27 8.75+360, r28 17.5+360, r29 35+360) was 0%.
With CC(C)=C1OC(=O)N(c2cc(OC3CCCC3)c(Cl)cc2F)C1=O [Pentoxazone, 3-[4-chloro-5-(cyclopentyloxy)-2-fluorophenyl]-5-(1-methylethylidene)-2,4-oxazolidinedione] the “Visual Weed Control (%) - 21 DAA ECHCG Obs” value (ECHCG [6]) was 0%, the “Visual Weed Control (%) - 21 DAA CYPRO Obs” value (CYPRO; 56.25 g ai/ha alone) was 0% and the “Visual Weed Control (%) - 21 DAA CYPRO Obs” value (CYPRO; 112.5 g ai/ha alone) was 0%. For the same compound, the “Visual Weed Control (%) - 21 DAA SCPJU Obs” value (SCPJU; 56.25 g ai/ha alone) was 0%, the “Visual Weed Control (%) - 21 DAA SCPJU Obs” value (SCPJU; 112.5 g ai/ha alone) was 0% and the “Visual Weed Control (%) - 21 DAA FIMMI Obs” value (FIMMI; 56.25 g ai/ha alone) was 25%. For the same compound, the “Visual Weed Control (%) - 21 DAA FIMMI Obs” value (FIMMI; 112.5 g ai/ha alone) was 20%.
With CCOC(=O)COc1cc(-c2nn(C)c(OC(F)F)c2Cl)c(F)cc1Cl [Pyraflufen-ethyl, ethyl 2-[2-chloro-5-[4-chloro-5-(difluoromethoxy)-1-methyl-1H-pyrazol-3-yl]-4-fluorophenoxy]acetate, reference compound] the “Visual Weed Control (%) - 21 DAA ECHCG Obs” value (ECHCG [5]; g ae/ha Compound A Benzyl Ester+g ai/ha pyraflufen-ethyl: r11 8+0, r12 0+5.3, r13 0+10.6, r14 8+5.3, r15 8+10.6) was 15%.
